Earlier results on 33 molecules are cited in patent US20070224637A1, “Oxidative protection of lipid layer biosensors” (priority 2006, published 2007).

For `Cc1cc2c(C(C)C)c(O)c(O)c(C=O)c2c(O)c1-c1c(C)cc2c(C(C)C)c(O)c(O)c(C=O)c2c1O` [Gossypol], the “Solubility In alcohol” value was “Yes”, the “Solubility In oil” value is “Yes” and the “Solubility In water” value is listed as “No”.
As for D-tocopherol [D-tocopherol (syn)], the “Solubility In alcohol” value is recorded as “Yes”, the “Solubility In oil” value is “Yes” and the “Solubility In water” value is on record as “No”.
Turning to `Cc1c(C)c2c(c(C)c1O)CC[C@@](C)(CCC[C@H](C)CCC[C@H](C)CCCC(C)C)O2` [d-α-tocopherol (syn), d-α-tocopherol], the “Solubility In alcohol” value was “Yes”, the “Solubility In oil” value is given as “Yes” and the “Solubility In water” value is given as “No”.
For `CCOc1ccc2c(c1)C(C)=CC(C)(C)N2` [Ethoxyquin], the “Solubility In oil” value is “Yes”.
Take `O[C@H](CS)[C@H](O)CS` (racemic) [Dithiothreitol]: the “Solubility In alcohol” value was “Yes”, the “Solubility In oil” value is “No” and the “Solubility In water” value is “Yes”.
For `CCCCCCCCCCCCOC(=O)c1cc(O)c(O)c(O)c1` [Dodecyl gallate], the “Solubility In alcohol” value is listed as “Yes”, the “Solubility In oil” value is “Yes” and the “Solubility In water” value is given as “No”.
With `CCCCCCCCOC(=O)c1cc(O)c(O)c(O)c1` [Octyl gallate], the “Solubility In alcohol” value is listed as “Yes”, the “Solubility In oil” value was “Yes” and the “Solubility In water” value is listed as “No”.
With `Cc1c(O)cc2c(c1C)O[C@](C)(CCC[C@H](C)CCC[C@H](C)CCCC(C)C)CC2` [γ-tocopherol (syn), γ-tocopherol], the “Solubility In alcohol” value was “Yes”, the “Solubility In oil” value is listed as “Yes” and the “Solubility In water” value is recorded as “No”.
On to Tocopherols, for which the “Solubility In oil” value is given as “Yes”.
As to `O=S([O-])[O-].[Ca+2]` [Calcium sulfite], the “Solubility In alcohol” value was “Yes” and the “Solubility In water” value was “Yes”.
For the molecule `NC(N)=S` [Thiourea], the “Solubility In alcohol” value was “Yes”, the “Solubility In oil” value is recorded as “No” and the “Solubility In water” value is “Yes”.
On to `CCOC(=O)c1cc(O)c(O)c(O)c1` [Ethyl gallate], for which the “Solubility In alcohol” value is “Yes”, the “Solubility In oil” value is “No” and the “Solubility In water” value is on record as “Slightly”.
On to `O=S([O-])S(=O)(=O)[O-].[Na+].[Na+]` [Sodium metabisulfite], for which the “Solubility In alcohol” value is reported as “Slightly” and the “Solubility In water” value was “Yes”.
On to `O=S([O-])[O-].[Na+].[Na+]` [Sodium sulfite], for which the “Solubility In alcohol” value is “No” and the “Solubility In water” value is on record as “Yes”.
Consider `COc1ccc(O)c(C(C)(C)C)c1` [Butylated hydroxyanisole], for which the “Solubility In alcohol” value is listed as “Yes”, the “Solubility In oil” value was “Yes” and the “Solubility In water” value was “No”.
Turning to `CC(Cc1ccc(O)c(O)c1)C(C)Cc1ccc(O)c(O)c1` (stereo not shown) [Nordihydroguaiaretic acid], the “Solubility In alcohol” value was “Yes”, the “Solubility In oil” value is given as “Yes” and the “Solubility In water” value is listed as “No”.
With `Oc1ccc(O)cc1` [Hydroquinone], the “Solubility In alcohol” value is “Yes”, the “Solubility In oil” value is reported as “Yes” and the “Solubility In water” value is recorded as “Yes”.
For the molecule `O=C(O)c1cc(O)c(O)c(O)c1` [Gallic acid], the “Solubility In alcohol” value is recorded as “Yes”, the “Solubility In oil” value is reported as “Yes” and the “Solubility In water” value is “Yes”.
Turning to `O=S([O-])S(=O)(=O)[O-].[K+].[K+]` [Potassium metabisulfite], the “Solubility In alcohol” value is reported as “No”, the “Solubility In oil” value was “No” and the “Solubility In water” value was “Yes”.
Consider `O=S=O` [Sulfur dioxide], for which the “Solubility In alcohol” value is reported as “Yes”, the “Solubility In oil” value is listed as “Yes” and the “Solubility In water” value is on record as “Yes”.
For the molecule `OCC(O)CS` (stereo not shown) [Monothioglycerol], the “Solubility In alcohol” value is “Yes” and the “Solubility In water” value is reported as “Yes”.
Regarding `N[C@@H](CCC(=O)N[C@@H](CS)C(=O)NCC(=O)O)C(=O)O` [Glutathione], the “Solubility In water” value was “Yes”.
Turning to `CC(=O)N[C@@H](CS)C(=O)O` [Acetylcysteine], the “Solubility In alcohol” value is listed as “Yes”, the “Solubility In oil” value is reported as “No” and the “Solubility In water” value is reported as “Yes”.
For the molecule `CCCOC(=O)c1cc(O)c(O)c(O)c1` [Propyl gallate], the “Solubility In alcohol” value is recorded as “Yes”, the “Solubility In oil” value was “Slightly” and the “Solubility In water” value is “Slightly”.
As to `O=S([O-])O.O=S([O-])O.[Ca+2]` [Calcium bisulfite], the “Solubility In water” value was “Yes”.
Turning to `O=S([O-])O.[Na+]` [Sodium bisulfite], the “Solubility In oil” value is listed as “No” and the “Solubility In water” value is recorded as “Yes”.
Consider `Cc1cc(C(C)(C)C)c(O)c(C(C)(C)C)c1` [Butylated hydroxytoluene], for which the “Solubility In alcohol” value is recorded as “Yes”, the “Solubility In oil” value is reported as “Yes” and the “Solubility In water” value is given as “No”.
Take `OC[C@@H](O)[C@@H](O)[C@H](O)[C@@H](O)CS` [Thiosorbitol]: the “Solubility In alcohol” value was “Yes”, the “Solubility In oil” value is on record as “Yes” and the “Solubility In water” value is “Yes”.
`CC(C)(C)c1cc(CO)cc(C(C)(C)C)c1O` [4-Hydroxymethyl-2,6-di-tert-butylphenol]: the “Solubility In alcohol” value is on record as “Yes”, the “Solubility In oil” value was “Yes” and the “Solubility In water” value is “Yes”.
In the case of `O=[PH2]O` [Hypophosphorus acid], the “Solubility In water” value is “Yes”.
Regarding `O=C(OC[C@H]1O[C@@H](OC(=O)c2cc(O)c(O)c(OC(=O)c3cc(O)c(O)c(O)c3)c2)[C@H](OC(=O)c2cc(O)c(O)c(OC(=O)c3cc(O)c(O)c(O)c3)c2)[C@@H](OC(=O)c2cc(O)c(O)c(OC(=O)c3cc(O)c(O)c(O)c3)c2)[C@@H]1OC(=O)c1cc(O)c(O)c(OC(=O)c2cc(O)c(O)c(O)c2)c1)c1cc(O)c(O)c(OC(=O)c2cc(O)c(O)c(O)c2)c1` [Tannic acid], the “Solubility In water” value was “Yes”.
Turning to `CCCCCCCCCCCCCCCC(=O)OC[C@H](O)[C@H]1OC(=O)C(O)=C1O` [Ascorbyl palmitate], the “Solubility In alcohol” value was “Yes”, the “Solubility In oil” value is “Yes” and the “Solubility In water” value is “Yes”.
As to `N[C@@H](CS)C(=O)O` [Cysteine], the “Solubility In alcohol” value is “Yes”, the “Solubility In oil” value was “No” and the “Solubility In water” value is “Yes”.
